According to US12428406B2 (PMV Pharmaceuticals, Inc., priority 2019, dated 2025):

What follows are compounds tested against T1, p53 Y220C (Homo sapiens, UniProt P04637, Y220C) (assay: In vitro DNA binding activity assay (HTRF / TR-FRET): stabilization of p53 Y220C and increase of its DNA binding activity). Conditions: recombinant His-tagged p53 Y220C DNA binding domain (aa 94-312), biotin-labeled consensus DNA, incubated at 27° C. or 29° C. for 60 min.
T1 construct: The recombinant protein was a truncation mutant containing only amino acids 94-312 of p53; made in house; host or cells: E. coli
Assay type: biochemical
In short: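 Compounds from 4.5 mM DMSO stocks, 3-fold serial dilutions; room-temperature incubations of 15 and 20 min. SC150 = concentration raising DNA binding by 50% over no-compound control.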

T1 sequence (P04637 94-312, change not shown): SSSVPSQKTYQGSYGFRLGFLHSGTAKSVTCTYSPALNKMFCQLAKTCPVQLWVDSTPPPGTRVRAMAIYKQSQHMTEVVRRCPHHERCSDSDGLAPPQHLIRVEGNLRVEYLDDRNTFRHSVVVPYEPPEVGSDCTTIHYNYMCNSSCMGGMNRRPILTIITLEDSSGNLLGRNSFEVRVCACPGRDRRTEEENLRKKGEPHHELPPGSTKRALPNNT

Compound | SC150 (concentration of the compound required to increase the DNA binding activity by 50%)
CCOc1cc(S(C)(=O)=O)ccc1NCC#Cc1cc2c(N[C@H]3CC[C@@H](N4CC5(COC5)C4)CC3)cccc2n1CC(F)(F)F [Compound 235A, 2-{3-[(2-ethoxy-4-methanesulfonyl-phenyl)amino]prop-1-yn-1-yl}-N-[(1S,4S)-4-{2-oxa-6-azaspiro[3.3]heptan-6-yl}cyclo-hexyl]-1-(2,2,2-trifluoroethyl)-1H-indol-4-amine] | + (+ = 0 μM ≤ SC150 < 0.05 μM)
CS(=O)(=O)c1ccc(NCC#Cc2cc3c(N[C@H]4CC[C@H](N5CC6(COC6)C5)CC4)cccc3n2CC(F)(F)F)c(OCCO)c1 [Compound 225A, 2-(5-methanesulfonyl-2-{[3-(4-{[(1R,4R)-4-{2-oxa-6-azaspiro[3.3]heptan-6-yl}cyclo-hexyl]amino}-1-(2,2,2-trifluoroethyl)-1H-indol-2-yl)prop-2-yn-1-yl]amino}phenoxy)ethan-1-ol] | + (+ = 0 μM ≤ SC150 < 0.05 μM)
CN1CC[C@@H](Nc2cccc3c2cc(C#CCNc2ccc(S(C)(=O)=O)cc2OCF)n3CC(F)(F)F)[C@@H](F)C1 [Compound 842A] | + (+ = 0 μM ≤ SC150 < 0.05 μM)
COCC(O)CN1CCC(Nc2cccc3c2cc(C#CCNc2ccc(S(C)(=O)=O)cc2)n3CC(F)(F)F)CC1 (stereo not shown) [Compound 672A, 1-{4-[(2-{3-[(4-methanesulfonylphenyl)amino]prop-1-yn-1-yl}-1-(2,2,2-trifluoroethyl)-1H-indol-4-yl)amino]piperidin-1-yl}-3-methoxypropan-2-ol] | + (+ = 0 μM ≤ SC150 < 0.05 μM)
COCCN1CC[C@@H](Nc2cccc3c2cc(C#CCNc2ccc(S(C)(=O)=O)cc2OC)n3CC(F)(F)F)[C@@H](F)C1 [Compound 859A, N-[(3S,4R)-3-fluoro-1-(2-methoxyethyl)piperidin-4-yl]-2-{3-[(4-methanesulfonyl-2-methoxyphenyl)amino]prop-1-yn-1-yl}-1-(2,2,2-trifluoroethyl)-1H-indol-4-amine] | + (+ = 0 μM ≤ SC150 < 0.05 μM)
CCOC(=O)c1ccc(NCC#Cc2cc3c(N[C@H]4CCN(C)C[C@H]4F)cccc3n2CC(F)(F)F)c(OC)c1 (racemic) [Compound 798A, rac-ethyl 4-{[3-(4-{[(3R,4S)-3-fluoro-1-methylpiperidin-4-yl]amino}-1-(2,2,2-trifluoroethyl)-1H-indol-2-yl)prop-2-yn-1-yl]amino}-3-methoxybenzoate] | + (+ = 0 μM ≤ SC150 < 0.05 μM)
COCC(O)CN1CCC(Nc2cccc3c2cc(C#CCNc2ccc(S(C)(=O)=O)cc2OC)n3CCCl)CC1 (stereo not shown) [Compound 700A, 1-(4-{[1-(2-chloroethyl)-2-{3-[(4-methanesulfonyl-2-methoxyphenyl)amino]prop-1-yn-1-yl}-1H-indol-4-yl]amino}piperidin-1-yl)-3-methoxypropan-2-ol] | + (+ = 0 μM ≤ SC150 < 0.05 μM)
COc1cc(C(=O)N2CCN(C)CC2)ccc1NCC#Cc1cc2c(NC3CCN(C)CC3)cccc2n1CC(F)(F)F [Compound 501A, 2-(3-{[2-methoxy-4-(4-methylpiperazine-1-carbonyl)phenyl]amino}prop-1-yn-1-yl)-N-(1-methylpiperidin-4-yl)-1-(2,2,2-trifluoroethyl)-1H-indol-4-amine] | + (+ = 0 μM ≤ SC150 < 0.05 μM)
COC[C@H](O)CN1CC[C@@H](Nc2cccc3c2cc(C#CCNc2ccc(S(N)(=O)=O)cc2OC)n3CC(F)(F)F)[C@@H](F)C1 [Compound 869A, 4-{[3-(4-{[(3S,4R)-3-fluoro-1-[(2R)-2-hydroxy-3-methoxypropyl]piperidin-4-yl]amino}-1-(2,2,2-trifluoroethyl)-1H-indol-2-yl)prop-2-yn-1-yl]amino}-3-methoxybenzene-1-sulfonamide] | + (+ = 0 μM ≤ SC150 < 0.05 μM)
CCN(CC)[C@H]1CC[C@H](Nc2cccc3c2cc(C#CCNc2ccc(S(C)(=O)=O)cc2OC)n3CC(F)(F)F)CC1 [Compound 162A, (1R,4R)-N^1,N^1-diethyl-N4-(2-{3-[(4-methanesulfonyl-2-methoxyphenyl)amino]prop-1-yn-1-yl}-1-(2,2,2-trifluoroethyl)-1H-indol-4-yl)cyclohexane-1,4-diamine] | + (+ = 0 μM ≤ SC150 < 0.05 μM)
COc1cc(C(=O)NC(C)C)ccc1NCC#Cc1cc2c(N[C@@H]3CCN(C)C[C@@H]3F)cccc2n1CC(F)(F)F [Compound 808A, 4-{[3-(4-{[(3S,4R)-3-fluoro-1-methylpiperidin-4-yl]amino}-1-(2,2,2-trifluoroethyl)-1H-indol-2-yl)prop-2-yn-1-yl]amino}-3-methoxy-N-(propan-2-yl)benzamide] | + (+ = 0 μM ≤ SC150 < 0.05 μM)
COCCN(C)S(=O)(=O)c1ccc(NCC#Cc2cc3c(NC4CCS(=O)(=O)CC4)cccc3n2CC(F)(F)F)c(OC)c1 [Compound 1046A, 4-[(3-{4-[(1,1-dioxo-1λ^6-thian-4-yl)amino]-1-(2,2,2-trifluoroethyl)-1H-indol-2-yl}prop-2-yn-1-yl)amino]-3-methoxy-N-(2-methoxyethyl)-N-methylbenzene-1-sulfonamide] | + (+ = 0 μM ≤ SC150 < 0.05 μM)
COc1cc(S(=O)(=O)Nc2cc(C)on2)ccc1NCC#Cc1cc2c(NC3CCOCC3)cccc2n1CC(F)(F)F [Compound 994A, 3-methoxy-N-(5-methyl-1,2-oxazol-3-yl)-4-[(3-{4-[(oxan-4-yl)amino]-1-(2,2,2-trifluoroethyl)-1H-indol-2-yl}prop-2-yn-1-yl)amino]benzene-1-sulfonamide] | + (+ = 0 μM ≤ SC150 < 0.05 μM)
CCN1CCC(Nc2cccc3c2cc(C#CCNc2ccc(S(C)(=O)=O)cc2OCF)n3CC(F)(F)F)CC1 [Compound 534A, N-(1-ethylpiperidin-4-yl)-2-(3-{[2-(fluoromethoxy)-4-methanesulfonylphenyl]amino}prop-1-yn-1-yl)-1-(2,2,2-trifluoroethyl)-1H-indol-4-amine] | + (+ = 0 μM ≤ SC150 < 0.05 μM)
COc1cc(S(C)(=O)=O)ccc1NCC#Cc1cc2c(N[C@@H]3CCN(C(C)=O)C[C@@H]3F)cccc2n1CC(F)(F)F [Compound 862A, 1-[(3S,4R)-3-fluoro-4-[(2-{3-[(4-methanesulfonyl-2-methoxyphenyl)amino]prop-1-yn-1-yl}-1-(2,2,2-trifluoroethyl)-1H-indol-4-yl)amino]piperidin-1-yl]ethan-1-one] | + (+ = 0 μM ≤ SC150 < 0.05 μM)
COCC(CNC(=O)c1ccc(NCC#Cc2cc3c(N[C@@H]4CCN(C)C[C@@H]4F)cccc3n2CC(F)(F)F)c(OC)c1)OC(=O)C(C)C (stereo partly drawn) [Compound 1055A, 1-[(4-{[3-(4-{[(3S,4R)-3-fluoro-1-methylpiperidin-4-yl]amino}-1-(2,2,2-trifluoroethyl)-1H-indol-2-yl)prop-2-yn-1-yl]amino}-3-methoxyphenyl)formamido]-3-methoxypropan-2-yl 2-methylpropanoate] | + (+ = 0 μM ≤ SC150 < 0.05 μM)
COCCN(C)[C@H]1CC[C@H](Nc2cccc3c2cc(C#CCNc2ccc(S(N)(=O)=O)cc2OCF)n3CC(F)(F)F)CC1 [Compound 168A, 3-(fluoromethoxy)-4-{[3-(4-{[(1R,4R)-4-[(2-methoxyethyl)(methyl)amino]cyclohexyl]amino}-1-(2,2,2-trifluoro-ethyl)-1H-indol-2-yl)prop-2-yn-1-yl]amino}benzene-1-sulfonamide] | + (+ = 0 μM ≤ SC150 < 0.05 μM)
COc1cc(S(N)(=O)=O)ccc1NCC#Cc1cc2c(NC3CCC4(CC3)OCCO4)cccc2n1CC(F)(F)F [Compound 63A, 4-({3-[4-({1,4-dioxaspiro[4.5]decan-8-yl}amino)-1-(2,2,2-trifluoroethyl)-1H-indol-2-yl]prop-2-yn-1-yl}amino)-3-methoxy-benzene-1-sulfonamide] | + (+ = 0 μM ≤ SC150 < 0.05 μM)
CNC(=O)c1ccc(NCC#Cc2cc3c(N[C@H]4CC[C@H](N5CCC(OC)C5)CC4)cccc3n2CC(F)(F)F)c(OC)c1 (stereo partly drawn) [Compound 428A, 3-methoxy-N-methyl-4-{[3-(4-{[(1R,4R)-4-(3-methoxypyrrolidin-1-yl)cyclohexyl]amino}-1-(2,2,2-trifluoroethyl)-1H-indol-2-yl)prop-2-yn-1-yl]amino}benzamide] | + (+ = 0 μM ≤ SC150 < 0.05 μM)
COc1cc(S(C)(=O)=O)ccc1NCC#Cc1cc2c(N[C@@H]3CCC(O)C[C@@H]3F)cccc2n1CC(F)(F)F (stereo partly drawn) [Compound 43A, (3S,4R)-3-fluoro-4-[(2-{3-[(4-methanesulfonyl-2-methoxyphenyl)amino]prop-1-yn-1-yl}-1-(2,2,2-trifluoroethyl)-1H-indol-4-yl)amino]cyclohexan-1-ol] | + (+ = 0 μM ≤ SC150 < 0.05 μM)
COc1cc(S(N)(=O)=O)ccc1NCC#Cc1cc2c(NC3CCN(C(=O)CC#N)CC3)cccc2n1CC(F)(F)F [Compound 747A] | + (+ = 0 μM ≤ SC150 < 0.05 μM)
CNC(=O)c1cc(OC)c(NCC#Cc2cc3c(N[C@H]4CCN(C)C[C@H]4F)cccc3n2CC(F)(F)F)cc1F [Compound 827A, 2-fluoro-4-{[3-(4-{[(3R,4S)-3-fluoro-1-methylpiperidin-4-yl]amino}-1-(2,2,2-trifluoroethyl)-1H-indol-2-yl)prop-2-yn-1-yl]amino}-5-methoxy-N-methylbenzamide] | + (+ = 0 μM ≤ SC150 < 0.05 μM)
